The text below walks through data of US20240139190A1, “NOVEL ANTIPARASITIC COMPOUNDS AND METHODS” (The Board of Regents of The University of Texas System, priority 2019, published 2024).

Structures are written as SMILES. “Also recorded” adds a separate entry of the source.

In general, EC50 refers to the concentration needed to bring the measured effect to its halfway point.

Assay [1] deals with intracellular L. amazonensis amastigotes. The assay is described as follows: Intramacrophage bioluminescence assay with luciferase-expressing L. amazonensis. It is filed as cell-based, Leishmania amazonensis. The note with it: Leishmania amazonensis, RAW264.7, 72 h, read-out: EC50^72 h against intracellular L. amazonensis amastigotes. How it is done: Intracellular EC50s were estimated with L. amazonensisluc parasites. Briefly, RAW 264.7 cells or BM primary Mϕs were starved overnight, then infected with metacyclic promastigotes at a Multiplicity of Infection (MOI) of 15 and incubated for another 24 h at 37° C. The plates containing infected RAW 264.7 cells/BM primary M4s were washed five times with serum-free DMEM. Serially diluted compounds were added, and plates were incubated at 37° C. for 72 hrs. Bioluminescence signal was measured as described above.
RAW 264.7 cells were used to perform a bioluminescence assay with transgenic luciferase-expressing L. amazonensis (FIG. 1C).

Assay [2] has the same test system. The assay is described as follows: Intracellular washout assay (LD50). It is filed as cell-based, Leishmania amazonensis. How it is done: Intracellular LD50s were measured. Briefly, RAW 264.7 cells were seeded to 96-multiwell plates at a density of 2×10^5 cells/mL (200 μL) and starved overnight at 37° C. The cells were infected with metacyclic promastigotes at a Multiplicity of Infection (MOI) of 15 and incubated for another 24 h at 37° C. The plates containing infected RAW 264.7 cells/BM primary M #s were washed five times with serum-free DMEM. Serially diluted compounds were added, and plates were incubated at 37° C. for 72 hrs. Wells were washed five times with DMEM, and the RAW 264.7 cells were lysed with 100 μL of 2 mg/mL saponin in DMEM for 5 min at room temperature, and further lysis was stopped with 100% FBS. After centrifugation, 200 μL acidic promastigotes media was replaced, plates were incubated at 26° C. for 96 h. Fluorescence intensity (alamarBlue®) was measured as described above.
All routine in vitro quantification of antileishmanial drug potency is quantification of “cytostatic” potency. […] Therefore, the cytocidal action of MMV676477 was quantified by obtaining an LD50 at 72 h (a Lethal Dose that kills 50% of the bulk population of the parasites relative to untreated control) and compared it to the known cytocidal drug amphotericin. An intracellular washout assay was employed. […] The ratio of LD50:EC50 was calculated for MMV676477 and amphotericin. Lower ratios indicate that the LD50 is similar to the EC50 value, meaning that the estimated EC50 values represent killing of the parasites rather than simple growth inhibition.

Assay [3] deals with cellular tubulin of L. amazonensis. In words: Polymerized vs. unpolymerized tubulin in parasites (differential centrifugation, western blot). It is filed as cell-based, Leishmania amazonensis. The note with it: 24 h at EC50^72 h, densitometry. The source says:
(§1) One reason why MMV676477 might affect parasite cell division is that, like paclitaxel, it might affect microtubule polymerization, either directly or indirectly. The degree to which MMV676477 affected microtubules polymerization in cells was examined. […] Centrifugation of these extracts allowed separation of insoluble polymeric (pellet) and soluble dimeric (supernatant) tubulin. […] The intensity of α-tubulin staining was examined by normalizing it to the intensity of a membrane protein (gp46 for promastigotes in FIG. 4D; p8 for amastigotes in FIG. 4E).

Assay [4] concerns L. amazonensis promastigotes and amastigotes. The assay is described as follows: Tubulin intensity by confocal immunofluorescence microscopy. Type of assay: cell-based, Leishmania amazonensis. The conditions noted are these: 24 h at EC50^72 h. How it is done:
Promastigotes or amastigotes were treated with the indicated compound concentrations and allowed to adhere to poly-L-lysine coated plates. All cells were fixed with 4% paraformaldehyde and permeabilized/blocked with 0.01% Triton X-100 and 2% BSA in PBS. Promastigotes and amastigotes were incubated with mouse anti-gp46 or anti-p8, respectively at 1:50 or 1:1000 and rat anti-alpha-tubulin antibody at 1:1000. Samples were then probed with A568 anti-mouse and […] secondary antibodies (Molecular Probes). DNA was labeled with Hoescht. Samples were visualized on a Zeiss LSM 880 Inverted confocal Airyscan microscope at 63×; full Z-thicknesses through parasites were obtained. […] For microscopic analysis of mitotic arrest, at least 200 parasites were analyzed per condition per experiment after 48 hrs incubation at compounds' EC50, and the average plus standard error for three experiments was calculated. Representative images were selected from the maximal intensity projections and linearly processed in Adobe Photoshop CS6.
as §1

The target in assay [5] is purified L. tarentolae tubulin (Leishmania tarentolae, UniProt A0A640KCM0+A0A640KQN0). The assay is described as follows: Chemical cross-linking competition with SW223022 probe. Type of assay: binding. The note with it: 100-fold excess of competitor.
Assay [6] has as its system blood-stage P. falciparum (3D7 strain). The assay is described as follows: Malaria SYBR green I fluorescence (MSF) assay. Type of assay: cell-based, Plasmodium falciparum. On the procedure: For other parasites, L. donovani, strain MHOM/SD/62/1S-C12D, was grown as previously described. Plasmodium falciparum parasites of the 3D7 strain were cultured in RPMI 1640 medium supplemented with 37.5 mM HEPES, 10 mM D-glucose, 2 mM L-glutamine, 100 μM hypoxanthine, 25 μg/mL gentamicin, 4% (v/v) human serum and 0.25% (v/v) Albumax II, at a 2% haematocrit in an atmosphere of 1% 02, 3% CO2 and 96% N2. Staging and parasitemia of the in vitro culture were assessed by light microscopy of Giemsa-stained thin blood smears.
Compounds were tested against the blood-stage Trypanosoma brucei (48 hr endpoint) and intra-erythrocytic asexual stages Plasmodium falciparum (3D7) using CellTiter-Glo® luminescent and Malaria SYBR green I fluorescence (MSF) assays, respectively. Similar methodology will be used for future experiments.
MMV676477 was tested against several other parasites: the axenic amastigotes of Leishmania donovani and Leishmania tarentolae, blood-stage Plasmodium falciparum, and Trypanosoma brucei. The compound's activity was measured using alamarBlue®, Malaria SYBR green I fluorescence (MSF) and CellTiter-Glo® luminescent assays. […] In addition, MMV676477 has also been recently reported as having potent activity against Neospora caninum, Cryptosporidium parvum, Toxoplasma gondii, and Entamoeba histolytica.

A further assay concerns the target T1, purified porcine tubulin (Sus scrofa, UniProt P02550+P02554).
T1 construct: purchased Cytoskeleton, Inc. T240
The assay is described as follows: Fluorescent microtubule assembly assay. The conditions noted are these: mammalian tubulin, fluorescence micrographs. Type of assay: biochemical. How it is done: To determine the selectivity of MMV676477, purified porcine tubulin was exposed to a serial dilution of the drug (0 to 25 μM) and absorbance was measured at 340 nm over time. […] To ensure that the absorbance seen at 340 nm reflected microtubule formation and not precipitation, a fluorescent microtubule assembly assay was employed.

For `CCc1c(C)nc(-n2nc(C)cc2NC(=O)c2ccccc2SC)[nH]c1=O` [MMV676477, N-(1-(5-Ethyl-4-methyl-6-oxo-1,6-dihydropyrimidin-2-yl)-3-methyl-1H-pyrazol-5-yl)-2-(methylthio)benzamide], the half-maximal effective concentration (EC50) in assay [1] turned out to be 510 nM. Also, the LD50/EC50 ratio in assay [2] (intracellular amastigotes) came out at 1.2. Moreover, the “LD50 72 h” value in assay [2] (intracellular washout, 72 h) stood at 620 nM. The “proportion of cellular polymeric tubulin” value in assay [3] is “significantly increased the proportion of cellular polymeric tubulin”. The “tubulin intensity over control (DMSO-treated)” value in assay [4] was “significant two-fold increase in tubulin intensity”. In addition, the “competition with SW223022 probe (fluorescent tubulin band)” value in assay [5] was “almost completely absent”. In addition, in assay [6], the “activity against Plasmodium falciparum (in words)” value is “nanomolar-range cytocidal potency; also recorded: broad activity; also recorded: nanomolar concentrations”. For the same compound, the “microtubules formed vs control” value on purified porcine tubulin was “many more microtubules were formed”.
